These results are taken from US12168646B2, “Aryl hydrocarbon receptor agonists and uses thereof” (NEXYS THERAPEUTICS, INC., priority 2022, dated 2024).

Series [1] is described as follows: Stability in human feces (azo reduction in feces homogenate). The format is in vitro ADME. The settings on record: pH 6.8, 37° C., under nitrogen. Here is the method:
Biological Data 2: Stability in Human Feces
Accordingly, selected azo compounds of the invention were exposed to human feces under conditions suitable to promote azo reduction.
The human feces from two donors were homogenized in isotonic phosphate buffered saline (pH 6.8) with a ratio of 1:10 (w/v). The tubes were sealed using sealing film. Test article was dissolved in isotonic phosphate buffer (pH 6.8) to form a working solution of 20 μM (if the solubility allows). An aliquot of working solution (50 μL) was added to the human feces homogenate (50 μL) for each time point (0, 1, 2, 4, 6 and 24 h) in duplicate and placed under nitrogen for about 1 minute in order to exhaust air, and then incubated at 37° C. After incubation at each pre-set time point, 1000 μL acetonitrile containing internal standard w as added to each tube to quench reaction. Samples were vortexed and centrifuged at 3700 rpm for 10 min and the supernatant was transferred for analysis (and diluted where necessary). The concentrations of test article and its metabolite (example 3) in the supernatants were determined using LC-MS/MS method. Sulfasalazine was used as a positive control. All incubations were performed in duplicate.

The next series concerns the target T1, AhR (Homo sapiens, UniProt P35869).
T1 construct: HT29-Lucia AhR cells were purchased from Invivogen (cat #ht21-ahr); host or cells: HT29-Lucia AhR cells
T1 sequence (P35869 11-848): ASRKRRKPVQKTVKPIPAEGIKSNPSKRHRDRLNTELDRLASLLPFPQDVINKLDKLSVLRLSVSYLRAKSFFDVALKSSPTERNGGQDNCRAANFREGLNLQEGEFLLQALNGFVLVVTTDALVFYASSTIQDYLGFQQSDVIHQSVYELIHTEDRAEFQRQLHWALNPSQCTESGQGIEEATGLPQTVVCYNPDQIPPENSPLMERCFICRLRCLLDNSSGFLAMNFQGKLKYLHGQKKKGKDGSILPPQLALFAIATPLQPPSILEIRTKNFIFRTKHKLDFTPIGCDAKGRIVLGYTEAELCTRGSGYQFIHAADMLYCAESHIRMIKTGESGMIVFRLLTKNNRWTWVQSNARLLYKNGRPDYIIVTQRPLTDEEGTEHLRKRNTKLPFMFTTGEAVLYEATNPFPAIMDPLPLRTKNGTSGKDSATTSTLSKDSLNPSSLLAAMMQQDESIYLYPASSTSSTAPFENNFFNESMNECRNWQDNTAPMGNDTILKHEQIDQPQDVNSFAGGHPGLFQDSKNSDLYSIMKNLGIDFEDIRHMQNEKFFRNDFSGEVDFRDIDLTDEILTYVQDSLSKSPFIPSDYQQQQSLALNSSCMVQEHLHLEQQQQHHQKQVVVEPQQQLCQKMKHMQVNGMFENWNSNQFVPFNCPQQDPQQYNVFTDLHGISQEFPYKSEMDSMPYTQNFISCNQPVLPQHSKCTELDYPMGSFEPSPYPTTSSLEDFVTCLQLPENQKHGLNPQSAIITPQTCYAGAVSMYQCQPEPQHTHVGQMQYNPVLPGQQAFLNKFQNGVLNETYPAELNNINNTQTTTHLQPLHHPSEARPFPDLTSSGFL
Kind of series: HT29 AhR Reporter Assay (HT29-Lucia AhR cells, QUANTI-Luc luminescence). The format is cell-based. The note with it: HT29-Lucia AhR cells. Here is the method: Biological Data 1: HT29 AhR Reporter Assay HT29-Lucia AhR cells were purchased from Invivogen (cat #ht21-ahr). […] The cell suspension was removed from growth medium and rinsed gently with pre-warmed PBS (10 mL). Pre-warmed Trypsin (1 mL) was added, and cells were held at 30° C. for about 5 min and then detached by pipette. The dissociated cell clumps were gently pipetted up and down. The cells were resuspended in pre-warmed detection medium (DMEM, 10% FBS (30 min at 56° C.), 100 U/ml penicillin, 100 μg/ml streptomycin, and test article or vehicle) and counted. A cell suspension of ˜500,000 cells/mL in Detection medium was prepared. […] Samples (20 μL/well) were pipetted into a 96-well white (opaque), and QUANTI-Luc™ (50 μL/well) was added. The plate was gently tapped and then read in a luminometer (0.1 s reading time).
A general note: In a reporter assay the amount or activity of a reporter protein is the signal.

Take `O=C(O)c1cc(/N=N/c2ccccc2-c2ccnc(Nc3ccc(C(F)(F)F)cc3)n2)cc(C(=O)O)c1O` [Example 37, (E)-2-Hydroxy-5-((2-(2-((4-(trifluoromethyl)phenyl)amino)pyrimidin-4-yl)phenyl)diazenyl)isophthalic acid]: the “% of parent remaining after incubation for 6 h” value (from here on “% of parent remaining”) in series [1] was 69%.

`O=C(O)c1cc(O)ccc1/N=N/c1ccccc1-c1ccnc(Nc2ccc(C(F)(F)F)cc2)n1` [Example 38, (E)-5-hydroxy-2-((2-(2-((4-(trifluoromethyl)phenyl)amino)pyrimidin-4-yl)phenyl)diazenyl)benzoic acid]: the “% of parent remaining” value in series [1] is 4%.

Turning to `O=C(O)c1ccc(/N=N/c2ccccc2-c2ccnc(Nc3ccc(C(F)(F)F)cc3)n2)c(O)c1` [Example 40, (E)-3-hydroxy-4-((2-(2-((4-(trifluoromethyl)phenyl)amino)pyrimidin-4-yl)phenyl)diazenyl)benzoic acid], in series [1], the “% of parent remaining” value stood at 22%.

As for `COc1cc(/N=N/c2ccccc2-c2ccnc(Nc3ccc(C(F)(F)F)cc3)n2)ccc1C(=O)O` [Example 42, (E)-2-methoxy-4-((2-(2-((4-(trifluoromethyl)phenyl)amino)pyrimidin-4-yl)phenyl)diazenyl)benzoic acid], in series [1], the “% of parent remaining” value is on record as 98%.

`COc1ccc(/N=N/c2ccccc2-c2ccnc(Nc3ccc(C(F)(F)F)cc3)n2)cc1C(=O)O` [Example 43, (E)-2-methoxy-5-((2-(2-((4-(trifluoromethyl)phenyl)amino)pyrimidin-4-yl)phenyl)diazenyl)benzoic acid]: the “% of parent remaining” value in series [1] amounted to 74%.

`N[C@H](Cc1cc(/N=N/c2ccccc2-c2ccnc(Nc3ccc(C(F)(F)F)cc3)n2)ccc1O)C(=O)O` [Example 49, (R,E)-2-amino-3-(2-hydroxy-5-((2-(2-((4-(trifluoromethyl)phenyl)amino)pyrimidin-4-yl)phenyl)diazenyl)phenyl)propanoic acid]: the “% of parent remaining” value in series [1] amounted to 33%.

As for `O=S(=O)(O)c1cc(/N=N/c2ccccc2-c2ccnc(Nc3ccc(C(F)(F)F)cc3)n2)ccc1O` [Example 50, (E)-2-hydroxy-5-((2-(2-((4-(trifluoromethyl)phenyl)amino)pyrimidin-4-yl)phenyl)diazenyl)benzenesulfonic acid], the “% of parent remaining” value in series [1] was found to be 10%.

Consider `O=C(O)c1cc(O)cc(/N=N/c2ccccc2-c2ccnc(Nc3ccc(C(F)(F)F)cc3)n2)c1` [Example 55, (E)-3-hydroxy-5-((2-(2-((4-(trifluoromethyl)phenyl)amino)pyrimidin-4-yl)phenyl)diazenyl)benzoic acid], for which the “% of parent remaining” value in series [1] is on record as 76%.

A word on the EC50: it is the midpoint of the concentration-response curve. `O=C(O)c1cc(/C=C/c2ccccc2-c2ccnc(Nc3ccc(C(F)(F)F)cc3)n2)ccc1O` [Example 59, (E)-2-hydroxy-5-(2-(2-((4-(trifluoromethyl)phenyl)amino)pyrimidin-4-yl)styryl)benzoic acid, reference compound] returned an EC50 on AhR (18-24 h, EC50 = concentration to reach half of maximum efficacy of reference compound VAF347) of 1.42 µM. Moreover, the Emax on AhR (% efficacy = 100%*(TA-BG)/(Ref-BG), Ref = VAF347, read-out: HT29 AhR % efficacy) came to 74%. The “% of parent remaining” value in series [1] turned out to be 94%.
